Source: the supplement of paper PMC10307832

What was measured:
Assay in all cases: relative viability (nuclei count vs DMSO), 5 days (fraction); higher = more cells survive
JZL-184 = compound: C1CN(CCC1C(C2=CC3=C(C=C2)OCO3)(C4=CC5=C(C=C4)OCO5)O)C(=O)OC6=CC=C(C=C6)[N+](=O)[O-] [JZL-184]
Method in brief: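 Viability here means nuclei in treated wells divided by nuclei in vehicle wells, reported as the median across plates. Only plates with control CV below 25% and at least one doubling passed. Lung cancer cell lines in 1536-well plates were exposed to five √10-spaced library-drug doses for 5 days and counted from 4× Hoechst images in MetaXpress.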

JZL-184 + Bortezomib = compound: C1CN(CCC1C(C2=CC3=C(C=C2)OCO3)(C4=CC5=C(C=C4)OCO5)O)C(=O)OC6=CC=C(C=C6)[N+](=O)[O-] [JZL-184] + CC(C)C[C@H](NC(=O)[C@H](Cc1ccccc1)NC(=O)c1cnccn1)B(O)O [Bortezomib] (partner 0.002 µM)
Method in brief: (§1)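 Relative viability equals treated-well nuclei counts divided by vehicle-well nuclei counts. Counts came from 4× images of lung cancer cell lines grown in 1536-well plates for 5 days after pin-tool dosing on the day after seeding. Dosing used one drug alone or a fixed anchor-drug dose plus five library-drug doses (not always all listed) in √10 steps, and values are medians of duplicate plates.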

JZL-184 + Navitoclax = compound: C1CN(CCC1C(C2=CC3=C(C=C2)OCO3)(C4=CC5=C(C=C4)OCO5)O)C(=O)OC6=CC=C(C=C6)[N+](=O)[O-] [JZL-184] + CC1(C)CCC(c2ccc(Cl)cc2)=C(CN2CCN(c3ccc(C(=O)NS(=O)(=O)c4ccc(N[C@H](CCN5CCOCC5)CSc5ccccc5)c(S(=O)(=O)C(F)(F)F)c4)cc3)CC2)C1 [Navitoclax] (partner 0.5 µM)
Method in brief: as §1

JZL-184 + Foretinib = compound: C1CN(CCC1C(C2=CC3=C(C=C2)OCO3)(C4=CC5=C(C=C4)OCO5)O)C(=O)OC6=CC=C(C=C6)[N+](=O)[O-] [JZL-184] + COc1cc2c(Oc3ccc(NC(=O)C4(C(=O)Nc5ccc(F)cc5)CC4)cc3F)ccnc2cc1OCCCN1CCOCC1 [Foretinib] (partner 0.25 µM)
Method in brief: as §1

JZL-184 + Lapatinib = compound: C1CN(CCC1C(C2=CC3=C(C=C2)OCO3)(C4=CC5=C(C=C4)OCO5)O)C(=O)OC6=CC=C(C=C6)[N+](=O)[O-] [JZL-184] + CS(=O)(=O)CCNCc1ccc(-c2ccc3ncnc(Nc4ccc(OCc5cccc(F)c5)c(Cl)c4)c3c2)o1 [Lapatinib] (partner 2 µM)
Method in brief: as §1

JZL-184 + Pictilisib = compound: C1CN(CCC1C(C2=CC3=C(C=C2)OCO3)(C4=CC5=C(C=C4)OCO5)O)C(=O)OC6=CC=C(C=C6)[N+](=O)[O-] [JZL-184] + CS(=O)(=O)N1CCN(Cc2cc3nc(-c4cccc5[nH]ncc45)nc(N4CCOCC4)c3s2)CC1 [Pictilisib] (partner 1 µM)
Method in brief: as §1

JZL-184 + Crizotinib = compound: C1CN(CCC1C(C2=CC3=C(C=C2)OCO3)(C4=CC5=C(C=C4)OCO5)O)C(=O)OC6=CC=C(C=C6)[N+](=O)[O-] [JZL-184] + C[C@@H](Oc1cc(-c2cnn(C3CCNCC3)c2)cnc1N)c1c(Cl)ccc(F)c1Cl [Crizotinib] (partner 1 µM)
Method in brief: as §1

JZL-184 + Linsitinib = compound: C1CN(CCC1C(C2=CC3=C(C=C2)OCO3)(C4=CC5=C(C=C4)OCO5)O)C(=O)OC6=CC=C(C=C6)[N+](=O)[O-] [JZL-184] + C[C@]1(O)C[C@@H](c2nc(-c3ccc4ccc(-c5ccccc5)nc4c3)c3c(N)nccn32)C1 [Linsitinib] (partner 1 µM)
Method in brief: as §1

JZL-184 + Alpelisib = compound: C1CN(CCC1C(C2=CC3=C(C=C2)OCO3)(C4=CC5=C(C=C4)OCO5)O)C(=O)OC6=CC=C(C=C6)[N+](=O)[O-] [JZL-184] + Cc1nc(NC(=O)N2CCC[C@H]2C(N)=O)sc1-c1ccnc(C(C)(C)C(F)(F)F)c1 [Alpelisib] (partner 2 µM)
Method in brief: as §1

JZL-184 + Olaparib = compound: C1CN(CCC1C(C2=CC3=C(C=C2)OCO3)(C4=CC5=C(C=C4)OCO5)O)C(=O)OC6=CC=C(C=C6)[N+](=O)[O-] [JZL-184] + O=C(c1cc(Cc2n[nH]c(=O)c3ccccc23)ccc1F)N1CCN(C(=O)C2CC2)CC1 [Olaparib] (partner 8 µM)
Method in brief: as §1

NCI-H1299
relative viability (JZL-184; 0.04 µM): 1.06
relative viability (JZL-184; 0.4 µM): 1
relative viability (JZL-184; 1.265 µM): 1.05
relative viability (JZL-184; 4 µM): 0.977
relative viability (JZL-184 + Bortezomib; first compound 0.04 µM): 1.04
relative viability (JZL-184 + Bortezomib; first compound 0.4 µM): 0.997
relative viability (JZL-184 + Bortezomib; first compound 1.265 µM): 1.04
relative viability (JZL-184 + Bortezomib; first compound 4 µM): 0.979
relative viability (JZL-184 + Navitoclax; first compound 0.04 µM): 1.06
relative viability (JZL-184 + Navitoclax; first compound 0.4 µM): 1.05
relative viability (JZL-184 + Navitoclax; first compound 1.265 µM): 1.06
relative viability (JZL-184 + Navitoclax; first compound 4 µM): 1.05
relative viability (JZL-184 + Foretinib; first compound 0.04 µM): 1.11
relative viability (JZL-184 + Foretinib; first compound 0.4 µM): 1.06
relative viability (JZL-184 + Foretinib; first compound 1.265 µM): 1.14
relative viability (JZL-184 + Foretinib; first compound 4 µM): 1.04
relative viability (JZL-184 + Lapatinib; first compound 0.04 µM): 0.954
relative viability (JZL-184 + Lapatinib; first compound 0.4 µM): 0.924
relative viability (JZL-184 + Lapatinib; first compound 1.265 µM): 0.969
relative viability (JZL-184 + Lapatinib; first compound 4 µM): 0.912
relative viability (JZL-184 + Pictilisib; first compound 0.04 µM): 0.922
relative viability (JZL-184 + Pictilisib; first compound 0.4 µM): 0.82
relative viability (JZL-184 + Pictilisib; first compound 1.265 µM): 0.779
relative viability (JZL-184 + Pictilisib; first compound 4 µM): 0.655
relative viability (JZL-184 + Crizotinib; first compound 0.04 µM): 0.982
relative viability (JZL-184 + Crizotinib; first compound 0.4 µM): 0.944
relative viability (JZL-184 + Crizotinib; first compound 1.265 µM): 0.915
relative viability (JZL-184 + Crizotinib; first compound 4 µM): 0.884
relative viability (JZL-184 + Linsitinib; first compound 0.04 µM): 1.16
relative viability (JZL-184 + Linsitinib; first compound 0.4 µM): 1.01
relative viability (JZL-184 + Linsitinib; first compound 1.265 µM): 0.95
relative viability (JZL-184 + Linsitinib; first compound 4 µM): 0.974
relative viability (JZL-184 + Alpelisib; first compound 0.04 µM): 1.14
relative viability (JZL-184 + Alpelisib; first compound 0.4 µM): 1.01
relative viability (JZL-184 + Alpelisib; first compound 1.265 µM): 1.08
relative viability (JZL-184 + Alpelisib; first compound 4 µM): 1.04
relative viability (JZL-184 + Olaparib; first compound 0.04 µM): 1.01
relative viability (JZL-184 + Olaparib; first compound 0.4 µM): 0.937
relative viability (JZL-184 + Olaparib; first compound 1.265 µM): 0.936
relative viability (JZL-184 + Olaparib; first compound 4 µM): 0.911
